pIC50: −log10 of the molar value.

Drawing on patent US11518758B2, “Heteroarylaminopyrimidine amide autophagy inhibitors and methods of use thereof” (Deciphera Pharmaceuticals, LLC, priority 2019, dated 2022), this text covers IC50 for eleven compounds.

One assay concerns the target T1, LRRK2 kinase (Homo sapiens, UniProt Q5S007).
T1 construct: purchased Thermo Fisher
In words: Biochemical assay for LRRK2 (coupled pyruvate kinase/lactate dehydrogenase assay). The following applies: 26.4 nM LRRK2 (residues 970-2528), 0.1 mM peptide substrate, 1 mM ATP.

Assay [1] relates to phospho-Serine 318 ATG13 (pATG13) in T24 cells. Put plainly: pATG13 levels of mutant HRas T24 cells after treatment with ULK inhibitors in combination with trametinib (ELISA). It is filed as cell-based, human. The following applies: with 250 nM trametinib. As to the method:
Example 181. pATG13 Levels of Mutant HRas T24 Cells after Treatment with ULK Inhibitors in Combination with Trametinib
T24 human urinary bladder cancer cells (25000 cells/well) were added to a 96-well tissue-culture treated plate in 100 μL of pre-warmed DMEM medium supplemented with 10% characterized fetal bovine serum (Invitrogen, Carlsbad, Calif.), 100 units/mL penicillin G, and 100 μg/mL streptomycin and allowed to grow overnight at 37° C., 5% CO2, and 95% humidity. The following day, 100 μL of media containing trametinib or DMSO as a control was added to wells. The final concentration of trametinib in wells was 250 nM. A dose response of a test compound (0.5 μL per well) was added. DMSO (0.5 μL) was added to control wells. The plate was briefly shaken to mix wells and then incubated at 37° C. overnight. The next day, the media was aspirated and cells were washed with Dulbecco's Phosphate Buffered Saline (Gibco). Cells were lysed using MPER lysis buffer (Pierce, Rockford, Ill.) containing Halt Phosphatase and Protease Inhibitors (Pierce, Rockford, Ill.) and Phosphatase inhibitor cocktail 2 (Sigma, St. Louis, Mo.) at 4° C. for 10 minutes with shaking.
Cellular levels of phospho-Serine 318 ATG13 (pATG13) were measured via an ELISA method. Total ATG13 Antibody (Cell Signaling Cat #13273) was used to coat the wells. The plate was incubated at 4° C. overnight and washed with ELISA wash buffer (Biolegend Cat #421601). The wells were then blocked with assay diluent (Biolegend Cat #421203) for 1 hour at room temperature. Plate wells were washed with ELISA wash buffer. Cell lysate was added to wells and incubated at room temperature for 2 hours. Plate wells were washed with ELISA wash buffer. Biotinylated pS318-ATG13 antibody (Rockland Immunochemicals Cat #600-401-C49) was diluted in assay diluent and added to each well and incubated at room temperature for 1 hour. Plate wells were washed with ELISA wash buffer. Streptavidin linked to horseradish peroxidase (Thermo Fisher Cat #21140) was diluted in assay diluent and added to each well and incubated at room temperature for 1 hour. Plate wells were washed with ELISA wash buffer. High sensitivity TMB substrate (Biolegend Cat #421101) was added to each well and incubated at room temperature for 20 minutes. The reaction was stopped with 2N Sulfuric Acid. The plate was analyzed at on a plate reader measuring absorbance at 450 nm and 540 nm (background). Signal was calculated by first subtracting the background absorbance at 540 nm from the absorbance at 450 nm for each well. Next, the background corrected absorbance at 450 nm from blank wells was subtracted from test wells. Data was compared to control wells to determine % ATG13 phosphorylation. GraphPad Prism was used to calculate IC50 values.
For orientation: ELISA stands for enzyme-linked immunosorbent assay.

Another assay addresses T2, ULK1 kinase (Homo sapiens, UniProt O75385, E37A/K38A).
T2 construct: (residues 1-283; ID NO: 2); purchased Beryllium
T2 sequence (O75385 1-283 E37A/K38A): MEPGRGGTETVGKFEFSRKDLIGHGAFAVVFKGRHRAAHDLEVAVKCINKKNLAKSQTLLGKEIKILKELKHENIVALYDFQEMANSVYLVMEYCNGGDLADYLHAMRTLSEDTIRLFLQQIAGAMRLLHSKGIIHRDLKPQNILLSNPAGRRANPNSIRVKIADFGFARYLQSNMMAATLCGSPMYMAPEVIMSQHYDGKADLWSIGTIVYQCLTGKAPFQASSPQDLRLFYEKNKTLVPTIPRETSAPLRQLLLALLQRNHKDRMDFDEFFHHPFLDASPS
Put plainly: Biochemical assay for ULK1.3 (coupled pyruvate kinase/lactate dehydrogenase assay). Particulars: 0.1 nM ULK1 (from Beryllium), peptide substrate, 1 mM ATP. As to the method:
Example 175. Biochemical Assay for ULK1.3
Activity of ULK1 kinase was determined spectroscopically using a coupled pyruvate kinase/lactate dehydrogenase assay that continuously monitors the ATP hydrolysis-dependent oxidation of NADH (e.g., Schindler et al. Science (2000) 289: 1938-1942). Assays were conducted in 384-well plates (100 uL final volume) using 0.1 nM ULK1 (from Beryllium), 0.075 mM peptide substrate (YANWLAASIYLDGKKK (SEQ ID NO: 5)), 1.5 units pyruvate kinase, 2.1 units lactate dehydrogenase, 1 mM phosphoenol pyruvate, 0.28 mM NADH and 1 mM ATP in assay buffer (100 mM Tris, pH 7.5, 15 mM MgCl2, 0.5 mM DTT, 0.004% (w/v) BSA, and 0.004% Triton X-100). Inhibition of ULK1 was measured by adding serial diluted test compound (final assay concentration of 1% DMSO). A decrease in absorption at 340 nm was monitored continuously for 6 hours at 30° C. on a multi-mode microplate reader (BioTek). The reaction rate was calculated using the 2-3 h time frame. The reaction rate at each concentration of compound was converted to percent inhibition using controls (i.e. reaction with no test compound and reaction with a known inhibitor) and IC50 values were calculated using software routines in Prism (GraphPad software).

T1 sequence (Q5S007 with tags, fused parts or gaps): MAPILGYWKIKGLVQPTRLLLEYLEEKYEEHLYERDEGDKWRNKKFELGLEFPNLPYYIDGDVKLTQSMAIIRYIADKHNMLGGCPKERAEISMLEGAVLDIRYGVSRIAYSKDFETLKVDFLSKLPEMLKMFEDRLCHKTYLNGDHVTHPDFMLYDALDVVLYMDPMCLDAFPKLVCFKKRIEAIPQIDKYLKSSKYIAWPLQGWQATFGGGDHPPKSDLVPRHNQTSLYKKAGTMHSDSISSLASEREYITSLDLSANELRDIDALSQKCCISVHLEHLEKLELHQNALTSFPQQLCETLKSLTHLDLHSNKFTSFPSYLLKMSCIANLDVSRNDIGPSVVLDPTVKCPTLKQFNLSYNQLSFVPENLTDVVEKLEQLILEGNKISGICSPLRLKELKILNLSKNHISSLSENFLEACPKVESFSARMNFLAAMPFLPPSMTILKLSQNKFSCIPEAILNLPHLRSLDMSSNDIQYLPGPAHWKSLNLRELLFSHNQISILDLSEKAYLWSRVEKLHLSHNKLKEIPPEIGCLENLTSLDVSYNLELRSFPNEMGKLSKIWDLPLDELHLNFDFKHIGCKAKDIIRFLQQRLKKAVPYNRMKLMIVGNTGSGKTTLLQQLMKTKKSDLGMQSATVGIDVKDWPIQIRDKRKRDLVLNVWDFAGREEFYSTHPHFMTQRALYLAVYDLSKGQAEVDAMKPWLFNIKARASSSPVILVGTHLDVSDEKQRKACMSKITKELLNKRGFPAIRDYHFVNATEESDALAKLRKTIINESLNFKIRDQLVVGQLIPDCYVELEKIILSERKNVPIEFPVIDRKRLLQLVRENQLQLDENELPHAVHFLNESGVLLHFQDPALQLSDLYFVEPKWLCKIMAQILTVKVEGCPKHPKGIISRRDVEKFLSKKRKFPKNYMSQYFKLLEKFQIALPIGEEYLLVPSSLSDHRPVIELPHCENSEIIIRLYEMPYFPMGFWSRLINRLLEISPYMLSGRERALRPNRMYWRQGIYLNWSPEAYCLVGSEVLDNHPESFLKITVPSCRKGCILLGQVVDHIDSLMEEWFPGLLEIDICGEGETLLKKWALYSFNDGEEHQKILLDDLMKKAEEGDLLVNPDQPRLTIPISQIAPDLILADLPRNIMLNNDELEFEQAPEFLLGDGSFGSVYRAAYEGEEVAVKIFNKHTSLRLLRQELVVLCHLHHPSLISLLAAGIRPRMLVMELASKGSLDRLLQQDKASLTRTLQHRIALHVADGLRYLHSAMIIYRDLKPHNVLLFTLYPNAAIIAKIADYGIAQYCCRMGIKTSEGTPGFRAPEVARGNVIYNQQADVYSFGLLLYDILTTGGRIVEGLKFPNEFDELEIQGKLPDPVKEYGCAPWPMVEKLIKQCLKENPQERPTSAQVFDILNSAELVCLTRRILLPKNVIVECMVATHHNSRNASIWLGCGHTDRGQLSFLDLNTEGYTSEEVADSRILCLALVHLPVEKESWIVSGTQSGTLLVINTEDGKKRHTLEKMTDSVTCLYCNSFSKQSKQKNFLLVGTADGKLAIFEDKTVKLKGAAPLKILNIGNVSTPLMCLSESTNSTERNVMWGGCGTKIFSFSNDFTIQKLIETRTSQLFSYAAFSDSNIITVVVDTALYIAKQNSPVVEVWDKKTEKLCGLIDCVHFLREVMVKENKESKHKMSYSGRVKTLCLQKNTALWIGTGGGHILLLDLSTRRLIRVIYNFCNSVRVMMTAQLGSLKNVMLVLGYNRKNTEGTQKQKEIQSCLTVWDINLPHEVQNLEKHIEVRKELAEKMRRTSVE

The term pIC50 denotes −log10 of the IC50, conventionally taken in molar units. Consider `Cc1nn(C2CCN(C)CC2)cc1Nc1ncc(C(F)(F)F)c(NCCCN2CCCCC2=O)n1` [Example 8], for which the pIC50 was 6.52 to 7.00 at LRRK2 kinase and 7.00 to 8.00 in assay [1].

Turning to `Cc1nn(C2CCN(C(C)C)CC2)cc1Nc1ncc(C(F)(F)F)c(NCCCN2CCCCC2=O)n1` [Example 15], the pIC50 in assay [1] was 7.00 to 8.00.

Take `Cc1nn([C@@H]2CCN(C)C2)cc1Nc1ncc(C(F)(F)F)c(NCCCN2CCCCC2=O)n1` [Example 18]: the negative logarithm of the IC50 (pIC50) in assay [1] was 6.52 to 7.00.

For the compound `CN(C)CCn1cc(Nc2ncc(C(F)(F)F)c(NCCCN3CCCCC3=O)n2)cn1` [Example 32], in assay [1], the pIC50 was 7.00 to 8.00.

Consider `Cc1nn([C@H]2CCN(C)C2)cc1Nc1ncc(Br)c(NCCCN2CCCCC2=O)n1` [Example 61], for which, at ULK1 kinase, the pIC50 is 7.00 to 7.60.

In the case of `CCN1CC[C@H](n2cc(Nc3ncc(Br)c(NCCCN4CCCCC4=O)n3)c(C)n2)C1` [Example 64], the pIC50 against LRRK2 kinase is 6.22 to 6.52.

For `Cc1nn(C2CCN(C(C)C)CC2)cc1Nc1ncc(C(F)(F)F)c(NCCCN2CCCOC2=O)n1` [Example 68], the pIC50 against ULK1 kinase is 7.00 to 7.60; in assay [1], 6.52 to 7.00.

`Cc1nn(CCCN2CCOCC2)cc1Nc1ncc(C(F)(F)F)c(NCCCN2CCCCCC2=O)n1` [Example 100]: in assay [1], the pIC50 was 6.52 to 7.00.

Turning to `Cc1nn(C2CCN(C)CC2)cc1Nc1ncc(C(F)(F)F)c(NCCCN2CCCOCC2=O)n1` [Example 102], the pIC50 against ULK1 kinase was 7.60 to 9.00.

Turning to `Cc1nn(C2CCN(C)CC2)cc1Nc1ncc(Cl)c(NCCCN2CCCOCC2=O)n1` [Example 105], the pIC50 in assay [1] is 6.52 to 7.00.

Consider `Cc1nn(C2CCN(C)CC2)cc1Nc1ncc(C(F)(F)F)c(NCCCN2CCOCCC2=O)n1` [Example 127], for which the pIC50 against ULK1 kinase is 7.60 to 9.00; in assay [1], 7.00 to 8.00.
